Laboratory results from ChEMBL document CHEMBL1133843, “3-Aryl-4-aryloyl-1-(1H-imidazol-5-yl)methylpyrrole, a novel class of farnesyltransferase inhibitors” (Bioorg Med Chem Lett, 2001).

Molecular target: Protein farnesyltransferase (Homo sapiens, UniProt P49354+P49356)
Experiment: Inhibition of [3H]FPP incorporation into Ha-ras protein by Farnesyltransferase
Type: functional

SMILES	IC50 [nM]
Cc1ccc(C(=O)c2cn(Cc3c[nH]cn3)cc2-c2cccc3ccccc23)cc1	65
Cn1cncc1Cn1cc(C(=O)c2ccc(Oc3ccccc3)cc2)c(-c2cccc3ccccc23)c1	4.6
O=C(c1ccccc1Br)c1cn(Cc2c[nH]cn2)cc1-c1cccc2ccccc12	88
Cc1ccc(C(=O)c2cn(Cc3c[nH]cn3)cc2-c2ccc3ccccc3c2)cc1	2300
O=C(c1ccccc1)c1cn(Cc2c[nH]cn2)cc1-c1cccc2ccccc12	115
Cc1ccc(C(=O)c2cn(Cc3c[nH]cn3)cc2-c2c3ccccc3cc3ccccc23)cc1	470
O=C(c1ccc(Oc2ccccc2)cc1)c1cn(Cc2c[nH]cn2)cc1-c1cccc2ccccc12	16
O=C(c1ccc(Br)cc1)c1cn(Cc2c[nH]cn2)cc1-c1cccc2ccccc12	32
CSCC[C@H](NC(=O)c1ccc(CNCc2c[nH]cn2)cc1-c1ccccc1C)C(=O)O	1.4
